The text below walks through data of ChEMBL document CHEMBL1152299, “Indazole-based liver X receptor (LXR) modulators with maintained atherosclerotic lesion reduction activity but diminished stimulation of hepatic triglyceride synthesis” (J Med Chem, 2008).

The source made the active and inactive calls. The rule behind the calls is not given here.

The target of series [1] is T1, Retinoid X receptor (Homo sapiens, UniProt P28702+P48443+P19793).
T1 sequence (P28702 whole entry): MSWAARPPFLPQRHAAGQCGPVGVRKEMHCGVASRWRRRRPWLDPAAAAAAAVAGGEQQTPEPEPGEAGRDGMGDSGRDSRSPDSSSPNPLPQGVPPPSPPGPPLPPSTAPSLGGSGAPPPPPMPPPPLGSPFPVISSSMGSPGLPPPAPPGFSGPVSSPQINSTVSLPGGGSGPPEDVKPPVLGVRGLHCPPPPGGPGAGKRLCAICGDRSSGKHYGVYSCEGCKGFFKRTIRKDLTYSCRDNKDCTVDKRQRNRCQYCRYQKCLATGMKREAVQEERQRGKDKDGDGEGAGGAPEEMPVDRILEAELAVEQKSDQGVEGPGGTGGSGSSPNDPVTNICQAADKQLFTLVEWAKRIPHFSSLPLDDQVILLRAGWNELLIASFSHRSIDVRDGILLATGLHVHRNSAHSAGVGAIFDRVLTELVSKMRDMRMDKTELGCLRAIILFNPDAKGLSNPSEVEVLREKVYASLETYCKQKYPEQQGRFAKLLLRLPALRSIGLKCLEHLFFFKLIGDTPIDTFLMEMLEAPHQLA
T1 sequence (P48443 whole entry): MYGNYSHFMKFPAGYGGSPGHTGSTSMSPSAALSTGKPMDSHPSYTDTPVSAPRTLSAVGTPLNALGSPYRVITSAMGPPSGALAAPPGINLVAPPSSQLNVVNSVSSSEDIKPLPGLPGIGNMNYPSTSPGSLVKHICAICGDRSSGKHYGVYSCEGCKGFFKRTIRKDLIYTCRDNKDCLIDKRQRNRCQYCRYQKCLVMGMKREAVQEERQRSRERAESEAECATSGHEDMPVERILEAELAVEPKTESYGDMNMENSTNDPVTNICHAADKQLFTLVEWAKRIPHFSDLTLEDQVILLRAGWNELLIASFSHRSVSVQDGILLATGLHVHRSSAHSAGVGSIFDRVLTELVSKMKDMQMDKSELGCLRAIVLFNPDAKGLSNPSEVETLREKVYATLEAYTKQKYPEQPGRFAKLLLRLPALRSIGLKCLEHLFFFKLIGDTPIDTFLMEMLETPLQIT
T1 sequence (P19793 whole entry): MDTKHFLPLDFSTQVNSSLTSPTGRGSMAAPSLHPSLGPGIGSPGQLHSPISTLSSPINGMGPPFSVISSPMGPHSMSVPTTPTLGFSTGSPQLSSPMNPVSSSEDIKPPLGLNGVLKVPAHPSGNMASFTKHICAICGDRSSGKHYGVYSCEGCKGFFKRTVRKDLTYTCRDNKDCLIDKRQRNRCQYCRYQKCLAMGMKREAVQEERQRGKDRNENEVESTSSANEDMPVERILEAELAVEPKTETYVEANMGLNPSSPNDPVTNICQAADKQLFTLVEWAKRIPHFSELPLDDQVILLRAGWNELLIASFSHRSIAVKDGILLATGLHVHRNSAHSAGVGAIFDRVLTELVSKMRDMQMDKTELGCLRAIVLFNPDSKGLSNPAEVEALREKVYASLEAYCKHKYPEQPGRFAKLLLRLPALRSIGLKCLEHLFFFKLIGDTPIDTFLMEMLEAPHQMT
Kind of series: (§1) Displacement of radiolabeled 9-cis retinoic acid from human RXR by scintillation proximity assay. The format is protein assay.

The test system of series [2] is THP-1. Kind of series: Stimulation of [3H]cholesterol efflux in human THP1 foam cells loaded with ac-LDL. Type of series: functional, cell-based.
Series [3] relates to THP-1. Kind of series: Stimulation of [3H]cholesterol efflux in human THP1 foam cells loaded with ac-LDL relative to TO901317. Type of series: functional.
In series [4] the target is Retinoid X receptor (Homo sapiens) (UniProt P28702+P48443+P19793). The description is as §1. The format is protein assay.
The target of series [5] is T2, Mineralocorticoid receptor (Homo sapiens, UniProt P08235).
T2 sequence (P08235 whole entry): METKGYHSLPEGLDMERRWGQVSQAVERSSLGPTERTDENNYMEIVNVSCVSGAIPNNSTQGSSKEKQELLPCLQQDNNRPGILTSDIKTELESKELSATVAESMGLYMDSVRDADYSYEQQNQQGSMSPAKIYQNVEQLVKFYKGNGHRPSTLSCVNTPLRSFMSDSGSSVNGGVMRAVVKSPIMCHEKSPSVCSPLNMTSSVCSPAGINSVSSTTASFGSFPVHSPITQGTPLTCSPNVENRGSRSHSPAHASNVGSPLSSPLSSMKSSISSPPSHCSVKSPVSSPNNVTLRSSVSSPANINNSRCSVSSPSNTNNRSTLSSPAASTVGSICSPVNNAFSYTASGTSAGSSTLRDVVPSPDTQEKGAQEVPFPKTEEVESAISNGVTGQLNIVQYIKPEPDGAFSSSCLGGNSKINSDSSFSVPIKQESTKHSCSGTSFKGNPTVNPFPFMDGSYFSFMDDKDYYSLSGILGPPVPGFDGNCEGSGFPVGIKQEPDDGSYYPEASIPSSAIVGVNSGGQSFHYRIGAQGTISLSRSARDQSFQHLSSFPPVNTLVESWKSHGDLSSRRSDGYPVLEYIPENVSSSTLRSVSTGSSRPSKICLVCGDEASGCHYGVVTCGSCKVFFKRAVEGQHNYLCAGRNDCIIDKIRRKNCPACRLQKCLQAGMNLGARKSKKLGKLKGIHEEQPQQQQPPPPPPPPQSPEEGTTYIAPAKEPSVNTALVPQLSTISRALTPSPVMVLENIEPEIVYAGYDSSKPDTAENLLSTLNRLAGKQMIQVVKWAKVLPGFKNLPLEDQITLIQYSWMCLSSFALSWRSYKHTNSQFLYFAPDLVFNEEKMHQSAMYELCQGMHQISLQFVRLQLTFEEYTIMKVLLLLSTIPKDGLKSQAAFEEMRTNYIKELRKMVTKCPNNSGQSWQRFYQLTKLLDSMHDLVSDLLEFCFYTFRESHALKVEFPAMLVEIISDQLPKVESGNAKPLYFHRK
Kind of series: Displacement of radiolabeled aldosterone from human mineralocorticoid receptor by filter paper assay.

Series [6] is described as follows: Half life in C57 mouse at 1 mg/kg, iv. The format is ADME, organism-based. Also noted: dose 1 mg/kg, route intravenous. As to conditions: in vivo.
Series [7] can be described thus: Volume of distribution at steady state in C57 mouse at 1 mg/kg, iv and 10 mg/kg, po. Type of series: ADME, organism-based. To be noted: in vivo, read-out: Vdss.
Series [8] can be described thus: AUC (0 to infinity) in C57 mouse at 1 mg/kg, iv and 10 mg/kg, po. To be noted: plasma. Type of series: ADME, organism-based.
Series [9] deals with Mus musculus. Kind of series: Reduction in atherosclerotic lesion size in LDL receptor knockout C57BL/6 mouse thoracic aorta at 15 mg/kg administered with Western diet after 8 weeks by oil Red-O staining. The format is functional. Also noted: scale not given: the % may be the effect or the level left.
Series [10] deals with Mus musculus. Kind of series: Increase in CYP7A1 gene expression in LDL receptor knockout C57BL/6 mouse liver at 15 mg/kg administered with Western diet. Type of series: functional.
A short description of series [11]: Bioavailability in C57 mouse at 1 mg/kg, iv and 10 mg/kg, po. Type of series: ADME, organism-based. To be noted: in vivo.

`Fc1ccc(-c2c3cccc(C(F)(F)F)c3nn2Cc2ccc(F)cc2Cl)cc1` [LXR-623] displayed an IC50 in [1] of over 10000 nM. In series [2], this compound had an EC50 of 1280 nM. The compound also came in with an Efficacy in series [3] of 140%.

In the case of `Fc1ccc(-c2c3cccc(C(F)(F)F)c3nn2Cc2ccccc2F)cc1`, the result in [4] was inactive. Besides, the IC50 in series [5] was over 10000 nM. The compound further registered an EC50 in series [2] of 549 nM. This compound also gave an Efficacy in series [3] of 132%. For the same compound, the half-life in series [6] is 7.9 h. Moreover, the Vd in [7] is 30.3 L/kg. Besides, the AUC(0-inf) in [8] stood at 3100 ng·h/mL. Also, the Activity in series [9] is on record as 28%. In addition, the “fold change (FC)” value in series [10] turned out to be 4. In addition, the bioavailability in series [11] is 106%.
